Experimental data from patent US7638556B2, “Freeze-dried product of N-[o-(p-pivaloyloxy benzenesulfonylamino)benzoyl]glycine monosodium salt tetra-hydrate and a process for the manufacture thereof” (Ono Pharmaceutical Co., Ltd., priority 2000, dated 2009).
Like-named read-outs stand apart in the source and are kept apart here.

Tests used:
[1] = solubility of compound (I) in water or ethanol; type: physicochemical
Method: However, compound (I) is hardly soluble in water or ethanol; the solubility is 0.4 mg/ml in water, and 6.0 mg/ml in ethanol. Therefore, by normal solvents it is difficult to prepare a clear solution for the process of a high-dosage freeze-dried product.
Compound (I) has, as shown above, a very low solubility; 0.4 mg/ml in water, 6.0 mg/ml in ethanol. In order to obtain a freeze-dried product to prepare a high-dosage product of this compound, it is necessary to improve the solubility.

[2] = solubility in mixed solvent of ethanol and water by titration until completely dissolved (Example 1); type: physicochemical; conditions: thermodynamic from solid
Method: By the following method, the concentration of compound (I) was measured when compound (I) was completely dissolved in various ratios of mixed solvent comprising water and ethanol.
Above mixed solvent was titrated with various added volume for compound (I) and the mixture was vigorously stirred and was left alone for several minutes.
The above operation was done repeatedly until confirming that the solute was completely dissolved by visual recognition.
Solubility A was given by dividing the amount of solute (mg) with the volume of added solvent (ml) when the solute was completely dissolved; and solubility B was given by dividing the amount of solute with the volume of added solvent before the solute was completely dissolved (mg).
It is judged that the solubility of compound (I) to mixed solvent of ethanol and water is between solubility A and solubility B.

[3] = prior freeze-dried product method using sodium carbonate and water; cited from earlier work
elastase = molecular target: T1, elastase (Homo sapiens, UniProt P08246); conditions: cited from earlier work
T1 sequence (P08246 30-267): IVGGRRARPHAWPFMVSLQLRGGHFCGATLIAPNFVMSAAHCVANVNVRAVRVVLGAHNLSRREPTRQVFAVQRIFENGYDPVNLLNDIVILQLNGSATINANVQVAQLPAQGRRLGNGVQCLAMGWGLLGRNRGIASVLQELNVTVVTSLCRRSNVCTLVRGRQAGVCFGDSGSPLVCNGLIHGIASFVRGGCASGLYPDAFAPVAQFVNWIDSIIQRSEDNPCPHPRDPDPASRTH

solubility ([1]; in water): 0.4 mg/mL | solubility ([1]; organic solvent or mixture, in ethanol): 6 mg/mL | solubility ([2]; aqueous with cosolvent or surfactant or cyclodextrin, ratio of ethanol 10 vol %, read-out: solubility A): 0.83 mg/mL | solubility ([2]; aqueous with cosolvent or surfactant or cyclodextrin, ratio of ethanol 10 vol %, read-out: solubility B): 0.91 mg/mL | solubility ([2]; aqueous with cosolvent or surfactant or cyclodextrin, ratio of ethanol 15 vol %, read-out: solubility A): 0.91 mg/mL | solubility ([2]; aqueous with cosolvent or surfactant or cyclodextrin, ratio of ethanol 15 vol %, read-out: solubility B): 1 mg/mL | solubility ([2]; aqueous with cosolvent or surfactant or cyclodextrin, ratio of ethanol 20 vol %, read-out: solubility A): 1.43 mg/mL | solubility ([2]; aqueous with cosolvent or surfactant or cyclodextrin, ratio of ethanol 20 vol %, read-out: solubility B): 1.67 mg/mL | solubility ([2]; aqueous with cosolvent or surfactant or cyclodextrin, ratio of ethanol 25 vol %, read-out: solubility A): 1.67 mg/mL | solubility ([2]; aqueous with cosolvent or surfactant or cyclodextrin, ratio of ethanol 25 vol %, read-out: solubility B): 2 mg/mL | solubility ([2]; aqueous with cosolvent or surfactant or cyclodextrin, ratio of ethanol 30 vol %, read-out: solubility A): 100 mg/mL | solubility ([2]; aqueous with cosolvent or surfactant or cyclodextrin, ratio of ethanol 30 vol %, read-out: solubility B): 125 mg/mL | solubility ([2]; aqueous with cosolvent or surfactant or cyclodextrin, ratio of ethanol 40 vol %, read-out: solubility A): 125 mg/mL | solubility ([2]; aqueous with cosolvent or surfactant or cyclodextrin, ratio of ethanol 40 vol %, read-out: solubility B): 167 mg/mL | solubility ([2]; aqueous with cosolvent or surfactant or cyclodextrin, ratio of ethanol 50 vol %, read-out: solubility A): 167 mg/mL | solubility ([2]; aqueous with cosolvent or surfactant or cyclodextrin, ratio of ethanol 50 vol %, read-out: solubility B): 250 mg/mL | solubility ([2]; aqueous with cosolvent or surfactant or cyclodextrin, ratio of ethanol 60 vol %, read-out: solubility A): 167 mg/mL | solubility ([2]; aqueous with cosolvent or surfactant or cyclodextrin, ratio of ethanol 60 vol %, read-out: solubility B): 250 mg/mL | solubility ([2]; aqueous with cosolvent or surfactant or cyclodextrin, ratio of ethanol 70 vol %, read-out: solubility A): 125 mg/mL | solubility ([2]; aqueous with cosolvent or surfactant or cyclodextrin, ratio of ethanol 70 vol %, read-out: solubility B): 167 mg/mL | solubility ([2]; aqueous with cosolvent or surfactant or cyclodextrin, ratio of ethanol 80 vol %, read-out: solubility A): 125 mg/mL | solubility ([2]; aqueous with cosolvent or surfactant or cyclodextrin, ratio of ethanol 80 vol %, read-out: solubility B): 167 mg/mL | solubility ([2]; aqueous with cosolvent or surfactant or cyclodextrin, ratio of ethanol 90 vol %, read-out: solubility A): 50 mg/mL | solubility ([2]; organic solvent or mixture, mixed solvent ethanol/water=3.0/7.0~8.0/2.0 (v/v), read-out: solubility): ≥ 80 mg/mL | solubility ([2]; organic solvent or mixture, ratio of ethanol 90 vol %, read-out: solubility B): 55.6 mg/mL | solubility ([2]; organic solvent or mixture, ratio of ethanol 100 vol %, read-out: solubility A): 5 mg/mL | solubility ([2]; organic solvent or mixture, ratio of ethanol 100 vol %, read-out: solubility B): 5.56 mg/mL | solubility ([2]; water, ratio of ethanol 0 vol %, read-out: solubility A): 0.22 mg/mL | solubility ([2]; water, ratio of ethanol 0 vol %, read-out: solubility B): 0.23 mg/mL
SMILES: CC(C)(C)C(=O)Oc1ccc(S(=O)(=O)Nc2ccccc2C(=O)NCC(=O)[O-])cc1.[Na+] [compound (I), N-[o-(p-pivaloyloxybenzenesulfonylamino)benzoyl]glycine monosodium salt tetra-hydrate]
solubility [3]: < 80 mg/mL | inhibitory activity against elastase (elastase): inhibitory activity against elastase
